The source made the active and inactive calls. No cut-off for these calls is given here.
Tests used:
[1] = Solubility of compound in 5 percent PBS buffer; type: physicochemical
[2] = Solubility of the compound in saline; type: physicochemical; conditions: buffer
HEK293 [3] = assay: PROTAC activity at E3 ligase/long BRD4 (unknown origin) expressed in HEK293 cells assessed as induction of BRD4 degradation at 300 to 1000 nM incubated for 18 hrs by Western blot analysis; type: cell-based; conditions: Homo sapiens, dose 300-1000 nM
HEK293 [4] = assay: PROTAC activity at E3 ligase/short BRD4 (unknown origin) expressed in HEK293 cells assessed as induction of BRD4 degradation at 300 to 1000 nM incubated for 18 hrs by Western blot analysis; type: cell-based; conditions: Homo sapiens, dose 300-1000 nM
HEK293 [5] = assay: PROTAC activity at E3 ligase/long BRD4 (unknown origin) expressed in HEK293 cells assessed as induction of BRD4 degradation at 300 to 1000 nM incubated for 18 hrs in presence of MG132 by Western blot analysis; type: cell-based; conditions: Homo sapiens, dose 300-1000 nM
HEK293 [6] = assay: PROTAC activity at E3 ligase/short BRD4 (unknown origin) expressed in HEK293 cells assessed as induction of BRD4 degradation at 300 to 1000 nM incubated for 18 hrs in presence of MG132 by Western blot analysis; type: cell-based; conditions: Homo sapiens, dose 300-1000 nM
HEK293 [7] = assay: PROTAC activity at E3 ligase/long BRD4 (unknown origin) expressed in HEK293 cells assessed as induction of BRD4 degradation at 300 to 1000 nM incubated for 18 hrs in presence of MLN4924 by Western blot analysis; type: cell-based; conditions: Homo sapiens, dose 300-1000 nM
HEK293 [8] = assay: PROTAC activity at E3 ligase/short BRD4 (unknown origin) expressed in HEK293 cells assessed as induction of BRD4 degradation at 300 to 1000 nM incubated for 18 hrs in presence of MLN4924 by Western blot analysis; type: cell-based; conditions: Homo sapiens, dose 300-1000 nM
HEK293 [9] = assay: PROTAC activity at E3 ligase/long BRD4 (unknown origin) expressed in HEK293 cells assessed as induction of BRD4 degradation at 300 to 1000 nM incubated for 18 hrs in presence of thalidomide by Western blot analysis; type: cell-based; conditions: Homo sapiens, dose 300-1000 nM
HEK293 [10] = assay: PROTAC activity at E3 ligase/short BRD4 (unknown origin) expressed in HEK293 cells assessed as induction of BRD4 degradation at 300 to 1000 nM incubated for 18 hrs in presence of thalidomide by Western blot analysis; type: cell-based; conditions: Homo sapiens, dose 300-1000 nM
[11] = Solubility of compound; type: physicochemical

Row | Structure (SMILES) | solubility [1] | solubility [2] | Activity (HEK293 [3]) | Activity (HEK293 [4]) | Activity (HEK293 [5]) | Activity (HEK293 [6]) | Activity (HEK293 [7]) | Activity (HEK293 [8]) | Activity (HEK293 [9]) | Activity (HEK293 [10]) | solubility [11]
1 | Cc1sc2c(c1C)C(c1ccc(Cl)cc1)=N[C@@H](CC(=O)NCCNC(=O)c1ccc(SCCC#CC(C3CCOCC3)N3CCC(NC(=O)COc4cccc5c4C(=O)N(C4CCC(=O)NC4=O)C5=O)CC3)cc1)c1nnc(C)n1-2 (some centres undefined) | Insoluble | Insoluble | Active | Active | inactive | inactive | inactive | inactive | inactive | inactive | 
2 | Cc1ncsc1-c1ccc(CNC(=O)[C@@H]2C[C@@H](O)CN2C(=O)[C@@H](NC(=O)CCCCC(=O)NC2CCN(C(C#CCCSc3ccc(C(=O)NCCNC(=O)C[C@@H]4N=C(c5ccc(Cl)cc5)c5c(sc(C)c5C)-n5c(C)nnc54)cc3)C3CCOCC3)CC2)C(C)(C)C)cc1 (some centres undefined) |  |  |  |  |  |  |  |  |  |  | Insoluble
3 | Cc1sc2c(c1C)C(c1ccc(Cl)cc1)=N[C@@H](CC(=O)NCC#CC(C1CCN(C(=O)COc3cccc4c3C(=O)N(C3CCC(=O)NC3=O)C4=O)CC1)N1CCN(C(=O)COc3cccc4c3C(=O)N(C3CCC(=O)NC3=O)C4=O)CC1)c1nnc(C)n1-2 (some centres undefined) | Insoluble | Insoluble |  |  |  |  |  |  |  |  | Insoluble

From ChEMBL document CHEMBL6153153, “Use of Aldehyde-Alkyne-Amine Couplings to Generate Medicinal Chemistry-Relevant Linkers” (ACS Med Chem Lett, 2025)
